In patent US5578639A, “PLA2 inhibitors and their use for inhibition of intestinal cholesterol absorption” (Warner-Lambert Company, priority 1995, dated 1996):
pIC50: −log10 of the molar value. Blank lines part the entries; values can stand above or below the compound they belong to.

Legend:
plasma lipids = assay: Plasma lipids in cholesterol-fed rats after oral PLA2 inhibitor; type: in vivo; details: 100 mg/kg oral gavage, about 8 hours after start of feeding
Protocol: Ultimately, agents that inhibit the absorption of dietary cholesterol should suppress postprandial increases in plasma cholesterol. This was tested with several. PLA2 inhibitors in cholesterol-fed rats. The general protocol consisted of preparing a carboxymethyl cellulose/Tween 20 dispersion of the compound of interest and administering it at a dose of 100 mg/kg by oral gavage to rats previously trained to meal-feed. Immediately following administration of the inhibitor, the rats were fed a lipid-rich meal of chow supplemented with cholesterol, peanut oil, and cholic acid.

porcine pancreatic PLA2 = molecular target: T1, porcine pancreatic PLA2 (Sus scrofa, UniProt P00592); assay: Fluorescence assay of porcine pancreatic PLA2 inhibition in vitro; type: biochemical; details: porcine pancreatic PLA2, in vitro; read-out: In Vitro IC50 (porc. panc. PLA2)
T1 construct: purchased Sigma Chemical Company (St. Louis, Mo.); host or cells: porcine pancreas
T1 sequence (P00592 23-146): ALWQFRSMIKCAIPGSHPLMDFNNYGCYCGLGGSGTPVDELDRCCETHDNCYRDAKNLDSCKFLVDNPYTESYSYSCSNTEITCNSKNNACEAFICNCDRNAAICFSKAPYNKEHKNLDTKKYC
Excerpt: The IC50 values for inhibition of porcine pancreatic PLA2, in vitro, are included for comparison with the in vivo activities.
A sensitive fluorescence method was used to measure the activity of pancreatic phospholipase A2 (PLA2) in vitro. PLA2 hydrolyzes the ester bond linking fatty acids to the sn-2 position in glycerophospholipids. Several types of PLA2 exist, including those isolated from venoms, synovial fluid, platelets, immunoactive cell types and the pancreas. The pancreatic PLA2 was the subject of this experiment because of its fundamental role in promoting lipid absorption in the intestine.
PLA2 activity was detected by the loss of pyrene excimer fluorescence that occurs when (1-pyrenyl)decanoic acid is hydrolysed from the sn-2 position of 1,2-bis-(1-pyrenedecanoyl)sn-glycero-3-phosphocholine ((P10)2 PC) by the action of PLA2. The use of similar pyrene-labeled PC substrates to detect PLA2 activity has been described previously (Radvanyi F., Jordan L., Russo-Marie F., Bon C., "A sensitive and continuous fluorometric assay for phospholipase A2 using pyrene-labeled phospholipids in the presence of serum albumin." Anal. Biochem., 177:103-109 (1989)). The full photophysical basis for the assay is described elsewhere (Birks J. B., "Photophysics of Aromatic Molecules," Wiley Interscience, New York, pp 301-371 (1970)).
In brief, pyrene excimers are formed by the complexation of one pyrene moiety in the ground-state with one pyrene moiety in the excited state to form an excited-state dimer (excimer) which fluoresces at longer wavelengths (475 nm emission maximum) than the wavelength range in which excited-state pyrene monomers fluoresce (370-400 nm). Excimer formation is dependent on the concentration of pyrene moieties. (P10)2 PC emits excimer fluorescence almost exclusively due to the fixed juxtaposition of the pyrene chromophores. The substrate concentration is sufficiently dilute so that excimer formation between the products of PLA2 action, namely lysoPY10PC and the (1-pyrenyl)decanoic acid, is insignificant.
In general, this assay scheme should have been applicable to the study of any type of PLA2. However, since pancreatic PLA2 is unique from the other PLA2 's in that it operates almost exclusively against micellized PC, the PC substrate in this assay was micellized with 1 mM deoxycholic acid. The PC component of the micelles consisted of 5 μM (P10)2 PC substrate diluted with a 99-fold excess (495 μM) of 1-oleyl-2-palmityl phosphatidylcholine (OPPC). The OPPC was inert to PLA2 hydrolysis because it contained ether-linked fatty alkyl chains in place of the ester-linked fatty acyl chains of normal PC. OPPC was included to 1) dilute the micellar (P10)2 PC concentration thereby minimizing intermolecular excimer formation, and 2) preserve the integrity of the micelles against the action of PLA2 since nonspecific micelle disruption could lead to nonlinear kinetics and fluorescence changes independent of lipolysis.
Phospholipase A2 (porcine pancreas), bovine serum albumin (BSA) (fraction V, essentially fatty acid-free) and sodium deoxycholate were obtained from Sigma Chemical Company, (St. Louis, Mo.). 1-Oleyl-2-palmityl-DL-phosphatidylcholine (OPPC) was ordered from Serdary Research Laboratories, Inc. (London, Ont., Canada). 1,2-Bis-(1-pyrenedecanoyl)-sn-glycero-3-phosphatidylcholine ((P10)2 PC) was obtained from Molecular Probes, Inc. (Eugene, Oreg.).
HEPES buffer (SHE) contained 150 mM NaCl, 20 mM HEPES (N-[2-hydroxyethyl]piperazine-N'-[2-ethanesulfonic acid]) and 1 mM EDTA (ethylenediamine tetraacetic acid) at pH 8.0.
1 mM (P10)2 PC in chloroform was prepared by adding 1 mL chloroform to a vial containing 1 mg of (P10)2 PC, as shipped by Molecular Probes. The actual concentration was determined spectrophotometrically by diluting 10 μL of the chloroform solution in 2 mL of ethanol. The absorbance spectrum of the ethanol solution was measured between 380 nm to 280 nm (Beckman DU-64). […]

[1] = system: intestinal lipid absorption; assay: Lymph-fistula rats, effect of PLA2 inhibitors on lymphatic lipid output; type: in vivo, rat; details: FIGS. 10 and 11
Excerpt: The intestinal lipid absorption pathway was isolated in the rat by inserting an infusion cannula in the proximal duodenum and implanting a second cannula in the mesenteric lymph vessel to intercept the lipoprotein output from the intestine. This lymph-fistula rat model was used to investigate the effect of pancreatic PLA2 inhibition, in situ, on intestinal absorption of infused lipid emulsions. In a typical experiment, cannulae were implanted the day before the experimental infusion. Following surgery, the animals were infused (2.5 mL/hr) with isotonic saline containing dextrose to flush the GI tract and obtain basal levels of lymphatic lipid output. On the day of the experiment, infusion of the dextrose recovery solution was continued for 1 hour to collect a basal lymph fraction. At the start of the next hour, the intake of the duodenal infusion cannula was switched to a lipid emulsion of isotonic saline containing safflower oil (59 mM), cholesterol (5.2 mM), PC (3.3 mM) and taurocholic acid (1.9 mM). One hour lymph fractions were collected until the end of the experiment. The lipid content (mass) of lymph fractions was determined by HPLC with a mass-sensitive, evaporative light-scattering detector. […]

cholesterol absorption = assay: Cholesterol-fed hamster model, plasma and liver cholesterol / cholesterol absorption; type: in vivo; details: FIG. 13
Excerpt: Neomycin and β-sitosterol (Cytellin) have been used as cholesterol absorption inhibitors to treat hypercholesterolemic patients (Kesaniemi, et al., Serum cholesterol lowering by inhibition of cholesterol absorption, Atherosclerosis, VIII:791-794 (1989)). The mechanisms by which these agents inhibit intestinal cholesterol absorption are unknown. Relatively large doses must be administered (1.5-2 g/day neomycin, 3-50 g/day β-sitosterol) to achieve up to 25% reductions in serum cholesterol levels. The advantages of PLA2 inhibitors over these agents is that the mechanism of cholesterol absorption inhibition is known and sufficiently potent PLA2 inhibitors could be administered in much smaller doses (potentially fewer side effects and better patient compliance) to achieve greater reductions in serum cholesterol levels. For example, in a cholesterol-fed hamster model, administration of 100 mg/kg of the phospholipase A2 inhibitor methyl-[2-(hexadecyloxy)phenyl]methyl ester phosphonic acid (Compound D in FIG. 13) produced reductions in plasma and liver cholesterol levels nearly equivalent to those obtained with a ten-fold higher dose (i.e., 1000 mg/kg) of β-sitosterol. Pancreatic PLA2 inhibitors represent a significant advancement over current agents, the use of which has already proven cholesterol absorption inhibitors to be a beneficial and effective therapy for hypercholesterolemia.

serum cholesterol = details: neomycin 1.5-2 g/day; β-sitosterol 3-50 g/day; cited from earlier work
Caco-2 cells [2] = assay: Caco-2 phospholipase A2-dependent cholesterol absorption, time course; type: cell-based, human; details: for suppression of cholesterol absorption by PC, effect of PLA2: porcine pancreatic PLA2, PC-containing micelles
Caco-2 cells [3] = assay: Caco-2 retinol absorption; type: cell-based, human; details: 10 μM retinol; FIG. 6
Protocol: (§1) Caco-2 cells were used as a tissue culture model of the human intestinal epithelium to compare the effects of phosphatidylcholine and lysophosphatidylcholine on lipid absorption and the subsequent re-esterification and secretion of micelle-derived lipids.
The micelle preparations used in the experiments described for FIG. 4 also contained 10 μM retinol. Retinol was included to determine whether the influence of micellar phospholipid composition on cholesterol absorption extended to other fatty alcohols. Like cholesterol, retinol is a fatty alcohol that is absorbed from the diet by the intestinal epithelium and passed into the circulation by an analogous transport process involving fatty acylation and assembly of the resultant retinyl esters into chylomicrons (Blomhoff R., Green M. H., Berg T., Norum K. R., "Transport and storage of vitamin A." Science, 250:399-404 (1990)).

Caco-2 cells [4] = assay: Caco-2 lipase studies; type: cell-based, human
Protocol: as §1
This was tested with the Caco-2 cells. Taurocholic acid micelles containing phosphatidylcholine, triolein, cholesteryl oleate and cholesterol were placed in the medium covering the apical surface of Caco-2 cell monolayers. Depending on the neutral lipid lipase being studied, either the triolein or cholesteryl oleate was tritium-labeled. The time course of radiolabeled lipid uptake and metabolism was studied in the absence or presence of the neutral lipid lipases, with or without PLA2. The results are in agreement with those presented by Borgstrom and coworkers. […] The results for micellar tri[^3 H]olein uptake indicated a similar but less severe dependence of triglyceride lipase activity on PLA2.

- pIC50 (porcine pancreatic PLA2): 5.40
Compound: CCCCCCCCCCCn1nnn(Cc2ccccc2)c1=N [Compound B, 1,4-dihydro-1-(phenylmethyl)-4-undecyl-5H-tetrazol-5-imine]
- % Change in plasma lipids vs. Control: HDL Chol. (plasma lipids): 9%
- % Change in plasma lipids vs. Control: Total Chol. (plasma lipids): -32%
- % Change in plasma lipids vs. Control: non-HDL Chol. (plasma lipids): -44%
- lipid absorption in rats [1]: reduced

Compound: CC[C@H](CC[C@@H](C)[C@H]1CC[C@H]2[C@@H]3CC=C4C[C@@H](O)CC[C@]4(C)[C@H]3CC[C@]12C)C(C)C [β-sitosterol]
- cholesterol absorption in hamsters (cholesterol absorption): reduced
- reductions in serum cholesterol levels (serum cholesterol): up to 25%

Compound: PLA2: porcine pancreatic phospholipase A2
- [3H]oleate-labeled PC synthesis relative to phospholipid-free micelles (Caco-2 cells [2]; 6 hours, micelles with lyso-PC, or PC with PLA2): slight decrease
- cell [14C]cholesteryl ester relative to incubations without micellar phospholipid (Caco-2 cells [2]; 12 hours, PC in the presence of PLA2): 60%
- cell-associated free [14C]cholesterol relative to level in the absence of PC (Caco-2 cells [2]; PLA2 added to PC-containing micelles): 76%
- suppression of cholesterol absorption by PC, effect of PLA2 (Caco-2 cells [2]): partially reversed the inhibitory effects of micellar PC
- suppression of cholesterol absorption by PC, effect of PLA2 (Caco-2 cells [2]; listed as pancreatic phospholipase A2): reverses the suppression of cholesterol absorption and metabolism
- retinol uptake and esterification (Caco-2 cells [3]): not affected
- cellular absorption of fatty acids (Caco-2 cells [4]; FIGS. 7 and 8): dramatic increase
- cellular accumulation of tritiated lipid from tri[3H]olein (Caco-2 cells [4]; triglyceride lipase with or without PLA2, FIG. 8): the greatest cellular accumulation of tritiated lipid occurred in the incubation containing both lipases together
- entry of micellar [3H]cholesteryl oleate label into cells (Caco-2 cells [4]; with or without carboxyl ester lipase and PLA2, FIG. 7): did not enter the cells unless both carboxyl ester lipase and PLA2 were included in the incubation
